# Measured values: PubChem BioAssay AID330 (DTP/NCI, 2004)
# “And” between values parts separate entries of the source, which are not always exact repeats. Equal values may be shown once. Toxic doses and inconclusive results are not listed.
# Test system: P388 leukemia ip, CD2F1 mice, survival T/C
# Experiment: NCI In Vivo Anticancer Drug Screen. Data for tumor model P388 Leukemia (intraperitoneal) in CD2F1 (CDF1) mice
# Details: endpoint: median survival time, higher = longer survival
# Outline: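 Mice carrying the transplanted tumor received test compound or vehicle. Survival was recorded in each group, and the value is the treated-group measurement divided by that of the vehicle-treated control group.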
# [1] = dose: 12.5 mg/kg/injection, schedule: Q01DX005 (ip), vehicle: saline
# [2] = dose: 25.0 mg/kg/injection, schedule: Q01DX005 (ip), vehicle: saline
# [3] = dose: 50.0 mg/kg/injection, schedule: Q01DX005 (ip), vehicle: saline
# [4] = dose: 50.0 mg/kg/injection, schedule: Q01DX005 (ip), vehicle: saline with Tween-80
# [5] = dose: 100.0 mg/kg/injection, schedule: Q01DX005 (ip), vehicle: saline with Tween-80
# [6] = dose: 50.0 mg/kg/injection, schedule: Q01DX005 (ip), vehicle: Klucel (hydroxypropylcellulose) (HPC)
# [7] = dose: 100.0 mg/kg/injection, schedule: Q01DX005 (ip), vehicle: Klucel (hydroxypropylcellulose) (HPC)
# [8] = dose: 200.0 mg/kg/injection, schedule: Q01DX005 (ip), vehicle: Klucel (hydroxypropylcellulose) (HPC)
# [9] = dose: 60.0 mg/kg/injection, schedule: Q01DX005 (ip), vehicle: saline with Tween-80
# [10] = dose: 60.0 mg/kg/injection, schedule: Q01DX005 (ip), vehicle: saline
# [11] = dose: 50.0 mg/kg/injection, schedule: Q01DX009 (ip), vehicle: saline with Tween-80
# [12] = dose: 100.0 mg/kg/injection, schedule: Q01DX009 (ip), vehicle: saline with Tween-80
# [13] = dose: 200.0 mg/kg/injection, schedule: Q01DX009 (ip), vehicle: saline with Tween-80
# [14] = dose: 120.0 mg/kg/injection, schedule: Q01DX005 (ip), vehicle: saline with Tween-80
# [15] = dose: 200.0 mg/kg/injection, schedule: Q01DX005 (ip), vehicle: saline with Tween-80
# [16] = dose: 240.0 mg/kg/injection, schedule: Q01DX005 (ip), vehicle: saline with Tween-80
# [17] = dose: 50.0 mg/kg/injection, schedule: Q01DX009 (ip), vehicle: saline
# [18] = dose: 100.0 mg/kg/injection, schedule: Q01DX009 (ip), vehicle: saline
# [19] = dose: 100.0 mg/kg/injection, schedule: Q04DX002 (ip), vehicle: saline with Tween-80
# [20] = dose: 200.0 mg/kg/injection, schedule: Q04DX002 (ip), vehicle: saline with Tween-80
# [21] = dose: 400.0 mg/kg/injection, schedule: Q04DX002 (ip), vehicle: saline with Tween-80
smiles,measurement,setting,value
CCN(CC)CC(C)(O)CNc1cc(OC)cc2cccnc12 (configuration not stated),T/C,[1],97 % of control
same,T/C,[2],101 % of control
same,T/C,[3],93 % of control and 94 % of control
CN(C)C1C2(C)CCC(C2)C1(C)C (configuration not stated),T/C,[4],103 % of control
same,T/C,[5],102 % of control
Nc1nnc(SCCCCCCCCCCSc2nnc(N)s2)s1,T/C,[6],95 % of control
same,T/C,[7],91 % of control
same,T/C,[8],89 % of control
CCOC(=O)N/N=C(\C)c1nc2ccccc2[nH]1,T/C,"dose: 15.0 mg/kg/injection, schedule: Q01DX005 (ip), vehicle: saline with Tween-80",106 % of control
same,T/C,"dose: 30.0 mg/kg/injection, schedule: Q01DX005 (ip), vehicle: saline with Tween-80",108 % of control
same,T/C,"dose: 60.0 mg/kg/injection, schedule: Q01DX005 (ip), vehicle: Klucel (hydroxypropylcellulose) (HPC)",100 % of control
same,T/C,[9],101 % of control
CCOC(=O)C(NC(C)=O)(C(=O)OCC)C1CCCCC1=O (configuration not stated),T/C,[10],108 % of control
same,T/C,"dose: 120.0 mg/kg/injection, schedule: Q01DX005 (ip), vehicle: saline",96 % of control
same,T/C,"dose: 240.0 mg/kg/injection, schedule: Q01DX005 (ip), vehicle: saline",99 % of control
NC(=S)N/N=C\C12CC3CC(CC(C3)C1)C2,T/C,[11],96 % of control
same,T/C,[12],108 % of control
O=S(=O)(OCCCl)c1c(F)c(F)c(F)c(F)c1F,T/C,"dose: 3.12 mg/kg/injection, schedule: Q01DX009 (ip), vehicle: saline with Tween-80",103 % of control
same,T/C,"dose: 6.25 mg/kg/injection, schedule: Q01DX009 (ip), vehicle: saline with Tween-80",109 % of control
same,T/C,"dose: 12.5 mg/kg/injection, schedule: Q01DX009 (ip), vehicle: saline with Tween-80",110 % of control
Cc1cc(O)c(C)c(C(=O)O)c1,T/C,[11],99 % of control
same,T/C,[12],99 % of control
same,T/C,[13],92 % of control
CN(C)CCN(C)c1cccc2c1C(=O)c1cscc1C2=O,T/C,[2],100 % of control
same,T/C,[3],100 % of control and 92 % of control
C[N+](C)(C)CCc1ccc2ccccc2c1,T/C,"dose: 25.0 mg/kg/injection, schedule: Q04DX002 (ip), vehicle: saline + alcohol",96 % of control
same,T/C,"dose: 50.0 mg/kg/injection, schedule: Q04DX002 (ip), vehicle: saline + alcohol",92 % of control
same,T/C,"dose: 100.0 mg/kg/injection, schedule: Q04DX002 (ip), vehicle: saline + alcohol",106 % of control and 108 % of control
N#CC(c1ccccc1)c1ccc2ccccc2n1 (configuration not stated),T/C,[9],92 % of control
same,T/C,[14],86 % of control
COc1cc(OC)c2[nH]c3c(c(=O)c2c1)C(=O)c1[nH]c2c(OC)cc(OC)cc2c(=O)c1C3=O,T/C,"dose: 50.0 mg/kg/injection, schedule: Q01DX009 (ip), vehicle: Klucel (hydroxypropylcellulose) (HPC)",109 % of control
same,T/C,"dose: 100.0 mg/kg/injection, schedule: Q01DX009 (ip), vehicle: Klucel (hydroxypropylcellulose) (HPC)",105 % of control
same,T/C,"dose: 200.0 mg/kg/injection, schedule: Q01DX009 (ip), vehicle: Klucel (hydroxypropylcellulose) (HPC)",108 % of control
Cc1[nH]oc(=O)c1C(=O)c1ccccc1,T/C,[4],95 % of control
same,T/C,[5],91 % of control
same,T/C,[15],91 % of control
CCCCNC(=S)N/N=C1/C=C2C=CC3C(CCC4(C)C(OC(C)=O)CCC34)C2(C)CC1 (configuration not stated),T/C,"dose: 100.0 mg/kg/injection, schedule: Q01DX001 (ip), vehicle: saline",99 % of control
same,T/C,"dose: 200.0 mg/kg/injection, schedule: Q01DX001 (ip), vehicle: saline",98 % of control
same,T/C,"dose: 400.0 mg/kg/injection, schedule: Q01DX001 (ip), vehicle: saline",97 % of control
CC(C)(C)c1cc2c(=O)o[s+]3oc(=O)c(c1)c23,T/C,"dose: 6.25 mg/kg/injection, schedule: Q01DX009 (ip), vehicle: Klucel (hydroxypropylcellulose) (HPC)",107 % of control
same,T/C,"dose: 12.5 mg/kg/injection, schedule: Q01DX009 (ip), vehicle: Klucel (hydroxypropylcellulose) (HPC)",104 % of control
same,T/C,"dose: 25.0 mg/kg/injection, schedule: Q01DX009 (ip), vehicle: Klucel (hydroxypropylcellulose) (HPC)",111 % of control
Cc1cc(C)cc(CSCc2c(CSCc3cc(C)cc(C)c3)c(CSCc3cc(C)cc(C)c3)c(CSCc3cc(C)cc(C)c3)c(CSCc3cc(C)cc(C)c3)c2CSCc2cc(C)cc(C)c2)c1,T/C,[11],102 % of control
same,T/C,[12],100 % of control
same,T/C,[13],105 % of control
CC1=N/C(=C\c2ccccc2)C(=O)N1c1ccccc1,T/C,[7],98 % of control
same,T/C,[8],104 % of control
same,T/C,"dose: 400.0 mg/kg/injection, schedule: Q01DX005 (ip), vehicle: Klucel (hydroxypropylcellulose) (HPC)",105 % of control
O=C1C[C@@H]2OCC=C3C[N+]4([O-])CC[C@]56c7ccccc7N1[C@H]5[C@H]2[C@H]3C[C@@H]64 (some centres not stated),T/C,[1],95 % of control
same,T/C,[2],88 % of control
CC1(C)CCCc2c(-c3ccccc3)cc3c4ccccc4cc[n+]3c21,T/C,[11],89 % of control
same,T/C,[12],88 % of control
Cc1ccc2c(c1)sc(C)[n+]2CCO,T/C,[9],100 % of control
same,T/C,[14],101 % of control
same,T/C,[16],101 % of control
CCCCCCC(/C=C/c1ccc(Cl)c(Cl)c1)=N\NC(=O)C[n+]1ccccc1,T/C,[17],99 % of control
same,T/C,[18],101 % of control
same,T/C,"dose: 200.0 mg/kg/injection, schedule: Q01DX009 (ip), vehicle: saline",101 % of control
O/N=C/c1cnns1,T/C,[4],105 % of control
same,T/C,[5],100 % of control
same,T/C,[15],100 % of control
CCOC(=O)c1ccccc1N1C(=O)c2ccccc2NP1(=O)Oc1ccccc1 (configuration not stated),T/C,"dose: 25.0 mg/kg/injection, schedule: Q01DX005 (ip), vehicle: Klucel (hydroxypropylcellulose) (HPC)",106 % of control
same,T/C,[6],103 % of control
same,T/C,[7],106 % of control
same,T/C,[8],98 % of control
CN=C(N)N/N=C(\c1ccccc1)c1ccc(Cl)c([N+](=O)[O-])c1,T/C,"dose: 12.5 mg/kg/injection, schedule: Q04DX002 (ip), vehicle: saline with Tween-80",105 % of control
same,T/C,"dose: 25.0 mg/kg/injection, schedule: Q04DX002 (ip), vehicle: saline with Tween-80",105 % of control
same,T/C,"dose: 50.0 mg/kg/injection, schedule: Q04DX002 (ip), vehicle: saline with Tween-80",99 % of control
same,T/C,[19],97 % of control
same,T/C,[20],98 % of control
same,T/C,[21],113 % of control
Cc1cc(C(N)=O)c[n+](C)c1,T/C,[3],100 % of control
same,T/C,"dose: 100.0 mg/kg/injection, schedule: Q01DX005 (ip), vehicle: saline",105 % of control
same,T/C,"dose: 200.0 mg/kg/injection, schedule: Q01DX005 (ip), vehicle: saline",107 % of control
CC1=NCCN=C(C)C1[N+](=O)[O-],T/C,[17],91 % of control
same,T/C,[18],87 % of control
CC1(C)CC(=O)C(C)(CCC#N)C(=O)C1,T/C,"dose: 100.0 mg/kg/injection, schedule: Q04DX003 (ip), vehicle: saline",102 % of control
same,T/C,"dose: 200.0 mg/kg/injection, schedule: Q04DX003 (ip), vehicle: saline",99 % of control
same,T/C,"dose: 400.0 mg/kg/injection, schedule: Q04DX003 (ip), vehicle: saline",99 % of control
CCCCCCCCCCCCN1CN=C(N)N(C#N)C1,T/C,[19],92 % of control
same,T/C,[20],99 % of control
same,T/C,[21],90 % of control
OC1(O)CCC1(O)OCCBr (configuration not stated),T/C,[9],92 % of control
same,T/C,[14],108 % of control
CC(C)CC(NC1=CC(=O)N(c2ccccc2)C1c1ccccc1)c1nc2ccccc2[nH]1 (configuration not stated),T/C,[6],99 % of control
same,T/C,[7],95 % of control
same,T/C,[8],95 % of control
CN(C)CCCN=c1c2ccccc2n(C)c2[nH]c(=O)n(C)c(=O)c12,T/C,"dose: 7.5 mg/kg/injection, schedule: Q01DX005 (ip), vehicle: saline",107 % of control
same,T/C,"dose: 15.0 mg/kg/injection, schedule: Q01DX005 (ip), vehicle: saline",124 % of control
same,T/C,[10],123 % of control
COc1cc(Br)c(CC(NC=O)c2ccc(OC)c(OC)c2OC)cc1OC (configuration not stated),T/C,[9],107 % of control
same,T/C,[14],100 % of control
same,T/C,[16],100 % of control
CCCCC(C)C(=O)/C=C/c1ccccc1 (configuration not stated),T/C,[11],107 % of control and 120 % of control
same,T/C,[12],108 % of control and 118 % of control
same,T/C,[13],120 % of control
same,T/C,"dose: 400.0 mg/kg/injection, schedule: Q01DX009 (ip), vehicle: saline with Tween-80",117 % of control
